Literature values, collected in patent US20250041322A1, “HEAT STRESS RELIEVING AGENT” (Hayashibara Co., Ltd., priority 2018, published 2025).

Water solubility, comparison in words: more water-soluble than hesperidin
SMILES: COc1ccc(C2CC(=O)c3c(O)cc(O[C@@H]4OC(CO)[C@@H](O)C(O)C4O)cc3O2)cc1O (stereo partly drawn) [7-O-β-glucosyl hesperetin]
